Our source for the viability values is paper PMC12040169 (PLOS Biology, 2025).

For orientation: viability means a read-out of living cells in per cent, often relative to untreated cells.

The data set in a line: in vitro. The settings on record: human, hela cells, % viability.
In the case of `CC(C)NC(=O)CN1CCN(Cc2nc(-c3cccc(Cl)c3)no2)CC1` [CBK304369], the viability at 28.5 h, 10 µM was 100%. For the compound `O=C(CN1CCCCC1CN1CCOCC1)NCc1ccccn1` (centres unmarked) [CBK304375], the viability at 28.5 h, 10 µM came out at 115%. As for `CCOC(=O)c1cnc2ccc(F)cc2c1N1CCN(C)CC1` [CBK304376], the figure is 90.1%; as for `Cc1nc(CCNC(=O)C2CCN(C(=O)c3ccc(F)cc3)CC2)cs1` [CBK304378], 105%. As for `Cn1nc(C2CC2)cc1NC(=O)NCC1CCN(c2ccccc2F)C1` (centres unmarked) [CBK304380], the figure is 85.2%. As for `O=C(Nc1ccc2nc3n(c(=O)c2c1)CCCC3)C1CCCCC1` [CBK304383], the viability at 28.5 h, 10 µM was 91.9%. With `COC(=O)c1cc(S(=O)(=O)N2c3ccccc3CC2C)cn1C` (centres unmarked) [CBK304384], the viability at 28.5 h, 10 µM was 81.4%. As for `CCOC(=O)Cc1nnc(-c2cccc(C(F)(F)F)c2)[nH]1` [CBK304385], the viability at 28.5 h, 10 µM was found to be 81.1%. As for `COC(=O)c1ccc(NC(=O)N(Cc2cnn(C)c2)CC(C)C)cc1Cl` [CBK304387], the viability at 28.5 h, 10 µM amounted to 93.1%.

As for `CC(=O)Nc1ccc(F)c(NC(=O)NCC2CCOC2)c1` (centres unmarked) [CBK304388], the viability at 28.5 h, 10 µM stood at 107%.

`CSc1cccc(C(=O)Nc2sc3c(c2C#N)CCN(C(C)=O)C3)c1` [CBK304390]: the viability at 28.5 h, 10 µM turned out to be 56%.

Regarding `CCCN(CCC)C(=O)c1ccc(NC(=O)CC)cc1` [CBK304391], the viability at 28.5 h, 10 µM stood at 91.8%. The figure for `O=C1CCC(N2CCN(c3ncnc4ccccc34)CC2)CCN1` (centres unmarked) [CBK304393] is 96.8%; for `COc1ccc(CN2CCN(C(=O)c3cccc(F)c3)CC2)cc1` [CBK304396] it is 97%; for `Cc1cc(C)n(CCCC(=O)N2CCC3(CCCO3)CC2)n1` [CBK304397] it is 102%. The figure for `COCCN1CC(CNC(=O)Nc2cc(NC(C)=O)ccc2F)CC1=O` (centres unmarked) [CBK304398] is 82.4%. Turning to `Cc1cccc(C(=O)N2CCN(Cc3nc4ccccc4[nH]3)CC2)c1` [CBK304399], the viability at 28.5 h, 10 µM amounted to 90.2%. As for `CCn1ncnc1CN1CCN(C2Cc3ccccc3C2)CC1` [CBK304401], the figure is 101%.

In the case of `COc1ccc(S(=O)(=O)NC(CCSC)c2nnc3ccccn23)cc1` (centres unmarked) [CBK304402], the viability at 28.5 h, 10 µM turned out to be 109%. In the case of `CC1(C)CC(NC(=O)C2CCN(S(C)(=O)=O)CC2)c2ccccc2O1` (centres unmarked) [CBK304404], the viability at 28.5 h, 10 µM turned out to be 103%. `Cc1cc(C)c(NC(=O)N(CCCO)Cc2ccncc2)c(Cl)c1` [CBK304406]: the viability at 28.5 h, 10 µM was determined as 87.3%. The figure for `Cc1nc(-c2ccc(Cl)cc2)sc1C(=O)N1CCCC(C(=O)O)C1` (centres unmarked) [CBK304407] is 91.9%. For `CCc1cc(C(=O)NC(Cn2ccnc2)C(C)(C)C)cc(=O)[nH]1` (centres unmarked) [CBK304410], the viability at 28.5 h, 10 µM is 101%. As for `OCC(CNc1ncnc2nc[nH]c12)Cc1ccccn1` (centres unmarked) [CBK304412], the figure is 83.4%. As to `O=C(c1c[nH]c(=O)c(Cl)c1)N1CCCCC1CN1CCOCC1` (centres unmarked) [CBK304416], the viability at 28.5 h, 10 µM came to 119%. Take `CC(=O)c1ccc(C(=O)Nc2sc3c(c2C#N)CCN(C(C)=O)C3)cc1` [CBK304418]: the viability at 28.5 h, 10 µM is 84.8%. The figure for `Cc1nc(CC(=O)NC2CCCN(c3ccn(C)n3)C2=O)c(C)s1` (centres unmarked) [CBK304422] is 82.8%; for `Cc1nc(-c2ccc(NCCc3nc(C4CC4)cs3)nc2)[nH]c(=O)c1C` [CBK304424] it is 108%; for `Cc1csc(C(C)NC(=O)NC2CCCN(c3ccn(C)n3)C2=O)n1` (centres unmarked) [CBK304426] it is 107%.

With `Cc1ccc(C#N)cc1S(=O)(=O)NC(=O)COCC1CC1` [CBK304427], the viability at 28.5 h, 10 µM came out at 113%. As for `CCOc1cc(NC2CCN(C(=O)C3(CCOC)CC3)CC2)ncn1` [CBK304434], the figure is 98.2%; as for `COc1ccc(CCNC(=O)Cn2ccc(C3CCCNC3)n2)cc1` (centres unmarked) [CBK304444], 76.3%; as for `COCc1nc2n(n1)CC(NC1CCCCc3ccccc31)CC2` (centres unmarked) [CBK304445], 89.4%. As for `Cc1cccc(N2CCOC3(CCCC3)C2)n1` [CBK304446], the figure is 82.1%. On to `Cc1noc(C)c1CN1CCC(c2ccccc2)C1` (centres unmarked) [CBK304451], for which the viability at 28.5 h, 10 µM was 109%. `CC1CN(CCCCNCc2cn(C)nc2-c2cccnc2)CC(C)O1` (centres unmarked) [CBK304453]: the viability at 28.5 h, 10 µM amounted to 92.6%. `CC(c1ccc(F)c(F)c1)N(C)C(=O)CN1CCCc2occc2C1` (centres unmarked) [CBK304456]: the viability at 28.5 h, 10 µM is 82.9%.

For `Cc1cc(C)cc(C(O)CNC2CCN(Cc3cscn3)CC2)c1` (centres unmarked) [CBK304457], the viability at 28.5 h, 10 µM was found to be 94.4%.

As to `Cc1nc(-c2cc3c(s2)CCN(CC(O)COCc2ccco2)C3)cs1` (centres unmarked) [CBK304460], the viability at 28.5 h, 10 µM was found to be 89.4%. Regarding `Cc1nc(C2CN(c3ccnc4c(F)cccc34)CCO2)no1` (centres unmarked) [CBK304464], the viability at 28.5 h, 10 µM worked out at 80.7%. As for `COC(=O)CCN(Cc1nnc(C2CC2)o1)C(C)C` [CBK304470], the figure is 84.6%; as for `Cc1c(C(=O)N2CCNCC2C)nnn1-c1ccc2ncccc2c1` (centres unmarked) [CBK304473], 94.6%; as for `Cc1csc2c(N3CCCC3CC(O)c3cnn(C)c3)ncnc12` (centres unmarked) [CBK304477], 91.9%. Turning to `COC(C)CN(C)C(=O)c1nnn(-c2ccc3ncccc3c2)c1C` (centres unmarked) [CBK304484], the viability at 28.5 h, 10 µM amounted to 85.8%.

Take `CCCn1c(C)nnc1CN(CC1CCCO1)C1CCC(C)CC1` (centres unmarked) [CBK304485]: the viability at 28.5 h, 10 µM worked out at 92%. As for `COc1cccc(C2(C(=O)N3CCc4nc[nH]c(=O)c4C3)CC2)c1` [CBK304488], the figure is 83.3%; as for `O=C(C1CCCN1)N1CC2(CCCC2)c2c(F)cccc21` (centres unmarked) [CBK304489], 90.1%; as for `CN1CCCC1CNCc1cn(-c2ccccc2)nc1-c1cccnc1` (centres unmarked) [CBK304490], 118%. Turning to `O=C(O)C1CCCN(C(=O)Cc2csc(COc3ccc(Cl)cc3)n2)C1` (centres unmarked) [CBK304501], the viability at 28.5 h, 10 µM was 88.1%. As for `Cc1ccc(CCC(=O)N(CC(=O)O)C2CCOCC2)c(C)c1` [CBK304509], the viability at 28.5 h, 10 µM was 91.6%.

With `CN(C)C(CNCc1cn(C)nc1-c1cccnc1)c1ccccc1` (centres unmarked) [CBK304511], the viability at 28.5 h, 10 µM turned out to be 84.8%. As for `CCOCC1CCN(C(=O)c2ncsc2Nc2cccnc2)C1` (centres unmarked) [CBK304514], the figure is 110%; as for `CN(C)C(=O)c1cccc(NC(=O)C2CCCCC2)c1` [CBK304515], 89.7%; as for `CCOC(=O)C1CSCCN1C(=O)c1ccc(-n2nc(C)cc2C)cc1` (centres unmarked) [CBK304517], 86.4%. As for `CN(CC1CCCCC1)C(=O)c1cc2ccsc2[nH]1` [CBK304518], the figure is 91.4%; as for `O=C(Cc1noc2ccccc12)Nc1ccc(N2CCCS2(=O)=O)cc1` [CBK304521], 107%. `CCOC(=O)N1CCN(C(=O)c2c(C)nn(C)c2Cl)CC1` [CBK304522]: the viability at 28.5 h, 10 µM turned out to be 92.6%. In the case of `CC(=O)Nc1ccc(CNC(=O)c2cc(C)n(CC(F)(F)F)c2C)cc1` [CBK304523], the viability at 28.5 h, 10 µM turned out to be 79.2%.

As to `Cc1cc(NCC2CCCO2)n2ncc(-c3ccccc3)c2n1` (centres unmarked) [CBK304530], the viability at 28.5 h, 10 µM is 83.8%.

Regarding `Cc1cc(NCC2CCCO2)n2nc(C)c(-c3ccccc3)c2n1` (centres unmarked) [CBK304531], the viability at 28.5 h, 10 µM was determined as 90.5%.

As to `O=C(Cn1nnc2ccccc2c1=O)NCC(F)(F)F` [CBK304533], the viability at 28.5 h, 10 µM worked out at 94.1%. As for `CCN1CCc2nc(NC(=O)Cc3cn4ccsc4n3)sc2C1` [CBK304534], the figure is 90%; as for `COC(=O)c1ccc2c(=O)n(CC3CCCO3)c(SC)nc2c1` (centres unmarked) [CBK304535], 108%; as for `Cc1nn(CCC#N)c(C)c1CCC(=O)NCc1cn2ccccc2n1` [CBK304540], 88.1%. On to `CC(=O)Nc1ccc(OCC(O)Cn2cnc3ncccc3c2=O)cc1` (centres unmarked) [CBK304541], for which the viability at 28.5 h, 10 µM stood at 86.4%. For the compound `CC(=O)Nc1ccc(OCC(O)Cn2cnc3cc(C)c(C)cc32)cc1` (centres unmarked) [CBK304545], the viability at 28.5 h, 10 µM amounted to 93.3%. As for `N#Cc1ccc(NC(=O)NCC2(N3CCOCC3)CCSC2)cc1` (centres unmarked) [CBK304546], the viability at 28.5 h, 10 µM was 89.5%. As for `Cc1nn(C)c(C)c1CC(=O)Nc1cccc(CN2CCCCC2)c1` [CBK304547], the figure is 87.4%; as for `CC(NC(=O)C1CC(=O)N(Cc2ccccn2)C1)c1ccc(F)cc1` (centres unmarked) [CBK304552], 97.1%; as for `CN(Cc1ccc(Br)cc1)C(=O)CNS(=O)(=O)c1cnn(C)c1` [CBK304553], 82.5%.

Turning to `CC(CNC(=O)C1CCCC1)N1CCc2ccccc2C1` (centres unmarked) [CBK304555], the viability at 28.5 h, 10 µM was determined as 94.2%. As for `O=C(Cn1ccccc1=O)Nc1ccc(OCC(F)(F)F)nc1` [CBK304556], the figure is 88.9%; as for `CC(=O)Nc1cccc(CNC(=O)c2cccnc2OCC(F)(F)F)c1` [CBK304557], 87.2%.

`CC(=O)Nc1ccc(CNC(=O)c2cccnc2O)cc1` [CBK304559]: the viability at 28.5 h, 10 µM came to 107%. The figure for `O=C1CCC(C(=O)N2CCN(S(=O)(=O)c3ccccc3Cl)CC2)N1` (centres unmarked) [CBK304561] is 77.6%.

Take `Cc1ccc(C(=O)Nc2ncn(CC(=O)N3CCCCCC3)n2)cc1` [CBK304569]: the viability at 28.5 h, 10 µM worked out at 106%. Regarding `Cc1sc2ncnc(N3CCCC3Cn3cccn3)c2c1C` (centres unmarked) [CBK304570], the viability at 28.5 h, 10 µM is 90.9%.

For `CN(C(=O)CN1CCCC1Cn1cccn1)C1(C#N)CCCCC1` (centres unmarked) [CBK304571], the viability at 28.5 h, 10 µM stood at 88.6%. As for `CCOC(=O)c1c(NC(=O)c2cccnc2)sc2c1CCCC2` [CBK304574], the figure is 101%.

Consider `CCOC(=O)c1c(NC(=O)CNCc2cccnc2)sc2c1CCCC2` [CBK304577], for which the viability at 28.5 h, 10 µM amounted to 94%. On to `N#Cc1ccc(OCC(=O)Nc2ncccn2)cc1` [CBK304578], for which the viability at 28.5 h, 10 µM stood at 85.4%. As for `Cc1cc(NC(=O)NC2CCOc3ccccc32)no1` (centres unmarked) [CBK304581], the figure is 93.8%; as for `Cc1ccccc1CN(C)C(C)C(=O)Nc1ccc(S(N)(=O)=O)cc1` (centres unmarked) [CBK304589], 91.7%.
